Reference: patent US20030092636A1, “Treatment and prevention of paresthesia comprising co-therapy with anticonvulsant derivatives and potassium” (priority 2001, published 2003)
Read-outs that look alike come from different tables or passages of the source.

Columns and labels:
paresthesias [1] = test: Single-patient case reports: potassium chloride given to patients with paresthesias while taking topiramate; assay type: in vivo, human; conditions: potassium chloride 20 mEq/day
Experimental: The patient was a person who had cluster headaches. The patient was taking topiramate at 150 mg/day. They complained of paresthesias. The patient was given potassium chloride at 20 mEq/day.
The patient was a person who had migraine headaches and who was taking topiramate at 150 mg/day. They complained of paresthesias and was given potassium chloride at 20 mEq/day.
The patient was a person who had migraine headaches and was taking topiramate at 200 mg/day. They complained of paresthesias and was given potassium chloride at 20 mEq/day.
The patient was a person who had migraine headaches and was taking topiramate at 125 mg/day. They complained of paresthesias and was given potassium chloride at 20 mEq/day.
The patient was a person who had migraine headaches and was taking topiramate at 50 mg/day. They complained of paresthesias and was given potassium chloride at 20 mEq/day.

paresthesias [2] = test: Anecdotal case studies: potassium supplementation in patients with persistent paresthesias; assay type: in vivo, human
[3] = infusion into an epidural catheter; cited from earlier work
paresthesia = conditions: intravenous potassium chloride in combination with spirocolactone; patient with hypokalemia and painful leg paresthesia; cited from earlier work
seizures [4] = conditions: several rodent models of epilepsy; cited from earlier work
[5] = cited from earlier work
[6] = test system: simple and complex partial seizures and secondarily generalized seizures; conditions: adjunctive therapy or monotherapy; human epilepsy; cited from earlier work
seizures [7] = conditions: animal model of kindled epilepsy; cited from earlier work

| Compound | paresthesias outcome (paresthesias [1]; Example 3: person, cluster headaches, topiramate 150 mg/day, within 9 days) | paresthesias outcome (paresthesias [1]; Example 4: person, migraine, topiramate 150 mg/day, after about one month) | paresthesias outcome (paresthesias [1]; Example 5: person, migraine, topiramate 200 mg/day, after about two months) | paresthesias outcome (paresthesias [1]; Example 6: person, migraine, topiramate 125 mg/day, after about one month) | paresthesias outcome (paresthesias [1]; Example 7: person, migraine, topiramate 50 mg/day, after one month) | effect on persistent paresthesias (paresthesias [2]; patients complaining of persistent paresthesias, 20-40 meq/day potassium chloride) | effect on paresthesias and severity (paresthesias [2]; potassium chloride and food (orange juice and bananas) supplementation) | effect of inadvertent epidural infusion [3] | outcome of treatment (paresthesia) | seizure block (seizures [4]) | adverse event or side effect ([5]; patients treated for epilepsy, migraine headaches, bipolar disorder) | severity of the paresthesia ([5]; patients treated with topiramate) | efficacy in treating seizures [6] | seizure block (seizures [7]) |
| --- | --- | --- | --- | --- | --- | --- | --- | --- | --- | --- | --- | --- | --- | --- |
| [Cl-].[K+] [potassium chloride] | paresthesias had abated | paresthesias had abated | paresthesias had abated | paresthesias had abated | paresthesias had abated | control of the paresthesias | effective in decreasing paresthesias and its severity | paresis (slight paralysis or weakness of a limb) and/or painful paraesthesias in the patient's extremities | stabilization of serum potassium, disappearance of paresthesia and normalization of muscle function and ECG |  |  |  |  |  |
| CC1(C)O[C@@H]2[C@@H](CO[C@@]3(COS(N)(=O)=O)OC(C)(C)O[C@@H]23)O1 [topiramate, 2,3:4,5-bis-O-(1-methylethylidene)-β-D-fructopyranose sulfamate] |  |  |  |  |  |  |  |  |  | effectively block seizures | paresthesia | mild to severe | effective as adjunctive therapy or as monotherapy | effectively block seizures |
